Each structure is given as a SMILES string. Read-outs that look alike come from different tables or passages of the source.

One test deals with type A viruses. The settings on record: cited from earlier work.
The next test has as its system A(H1N1)pdm09 viruses. It is filed as cell-based, influenza A(H1N1)pdm09 virus. Particulars: read-out: Median EC50.
Test [1] deals with influenza B virus infections. The settings on record: human, in vivo; cited from earlier work.
The next test concerns B/Victoria viruses. Type of test: cell-based, influenza B/Victoria lineage virus.
The next test concerns A(H3N2) viruses. Type of test: cell-based, influenza A(H3N2) virus. The settings on record: read-out: Median EC50.
For test [2], the target named is A (H1N1)pdm09 neuraminidase (NA). Type of test: biochemical, influenza A (H1N1)pdm09 virus. The settings on record: read-out: IC50 Median.
Test [3] addresses B/Victoria neuraminidase (NA). Type of test: biochemical, influenza B/Victoria lineage virus.
Test [4] deals with A (H3N2) neuraminidase (NA) (Influenza A virus (H3N2), UniProt V9SU56). It is filed as biochemical.
For test [5], the system named is type B versus type A viruses. Particulars: cited from earlier work.

One may read the EC50 as the concentration at which the effect is half-maximal. As to `O=C1c2c(O)c(=O)ccn2N([C@@H]2c3ccccc3SCc3c2ccc(F)c3F)[C@@H]2COCCN12` [Baloxavir, baloxavir], in the test on type A viruses, the “elevated baloxavir EC50” value was “• Treatment-emergent • Rarely as natural polymorphisms • Confer elevated baloxavir EC50 (4–112-fold)”. For the same compound, the EC50 in the test with A(H1N1)pdm09 viruses came to 0.8 nM; with B/Victoria viruses (read-out: Median EC50), 4.06 nM; in the test with A(H3N2) viruses, 0.58 nM. In test [1], the effectiveness in treatment entry is listed as “more effective than oseltamivir”. In addition, the “median EC50 for B/Victoria viruses, fold higher than influenza A subtypes” value in the test with B/Victoria viruses was 5–7 fold.
As a reminder, the IC50 is the midpoint of a concentration-inhibition curve. With `CCC(CC)[C@H](NC(C)=O)[C@@H]1[C@H](O)[C@@H](C(=O)O)C[C@H]1N=C(N)N` [Peramivir, peramivir], the 50% inhibitory concentration (IC50) in test [2] was 0.07 nM; in [3] (read-out: IC50 Mean ± SD), 0.35 ± 0.11 nM; in test [3] (read-out: IC50 Median), 0.33 nM; in [3] (read-out: IC50 Range) it was 0.14 to 0.88 nM; in [4] (read-out: IC50 Mean ± SD), 0.09 ± 0.02 nM; in test [4] (read-out: IC50 Median) it was 0.08 nM. Also, the IC50 in test [4] (read-out: IC50 Range) was 0.05 to 0.25 nM.
On to `CCOC(=O)C1=C[C@@H](OC(CC)CC)[C@H](NC(C)=O)[C@@H](N)C1` [Oseltamivir, oseltamivir], for which the “clinical effects against influenza B compared to influenza A virus infections” value in [1] is “reduced effects”. Besides, the “lower activity against type B versus type A viruses” value in [5] is 47- to 80 fold.

(Values after publication PMC12621569 (Antiviral research, 2025).)
